From patent US9181234B2, “Antibacterial compounds” (priority 2010, dated 2015)
Values after ≈ are worked out from the molar mass of the structure shown.

Assays:
[1] = test system: Staphylococcus aureus (Isolate ID ATCC 29213); assay: Antibacterial activity, MIC, S. aureus; assay type: cell-based; conditions: Staphylococcus aureus, ATCC29213, Gram positive strain; broth microdilution or agar dilution
Experimental: (§1) Bacterial Assay: Determination of Antibacterial Activity
(§2) Compounds of the invention were tested for antimicrobial activity by susceptibility testing in liquid or on solid media. MICs for compounds against each strain were determined by the broth microdilution or agar dilution method according to the guidelines of the Clinical Laboratories and Standards Institute, formerly the National Committee for Clinical Laboratory Standards (Clinical Laboratories and Standards Institute. Methods for Dilution Antimicrobial Susceptibility Tests for Bacteria That Grow Aerobically; Approved Standard—Seventh Edition. Document M7-A7. CLSI, Wayne, Pa., 2006; Clinical Laboratories and Standards Institute. The gram positive bacterial strains tested include S. aureus (Staphylococcus aureus (Isolate ID ATCC 29213)), E. faecalis (Enterococcus faecalis (Isolate ID ATCC 29212)) and S. pyogenes (Streptococcus pyogenes (Isolate ID ATCC 51339)). The gram negative bacterial strains tested include H. influenzae (Haemophilus influenzae (Isolate ID ATCC 49247))

[2] = test system: Streptococcus pyogenes (Isolate ID ATCC 51339); assay: Antibacterial activity, MIC, S. pyogenes; assay type: cell-based; conditions: Streptococcus pyogenes, ATCC51339, Gram positive strain; broth microdilution or agar dilution
Experimental: as §1, §2

physchem = conditions: kinetic from dmso stock
Experimental: Turbimetric Assay: Determination of Solubility
The solubility of the compounds was measured using a turbidimetric method. A series of doubling dilutions of compounds were prepared in neat dimethyl sulfoxide (DMSO). 5 μl samples were diluted twenty-fold into 95 μl volumes of 100 mM citrate buffer (pH 4), phosphate buffered saline (PBS, pH 7.4) or carbonate-bicarbonate buffer (pH 9) in microtitre assay plates and allowed to reach equilibrium at room temperature for 24 hours. The absorbance within each well of the plate was read spectrophotometrically at a wavelength of 620 nm. A precipitate forms when the maximum aqueous solubility level is reached. The value quoted is the highest concentration where the compound was in solution i.e. where no measurable precipitate was present. […] ND=not determined

[3] = test system: Haemophilus influenzae (Isolate ID ATCC 49247); assay: Antibacterial activity, MIC, H. influenzae; assay type: cell-based; conditions: Haemophilus influenzae, ATCC49247; Gram negative strain; broth microdilution or agar dilution
Experimental: as §1, §2

[4] = pH 7.4, aqueous buffer, Max Solubility
[5] = pH 7.4, aqueous buffer, Solubility (pH 7.4)
[6] = pH 7.4, aqueous buffer, Solubility Range
[7] = pH 7.4, aqueous buffer, Solubility Range (maximum solubility)
[8] = pH 9, aqueous buffer, Max Solubility
[9] = pH 9, aqueous buffer, Solubility Range (maximum solubility)

SMILES | MIC [1] [µg/mL] | MIC [2] [µg/mL] | solubility at 24 h (physchem; [4]) [µg/mL] | solubility at 24 h (physchem; [5]) [µg/mL] | solubility at 24 h (physchem; [6]) [µg/mL] | solubility at 24 h (physchem; [7]) [µg/mL] | MIC [3] [µg/mL] | solubility at 24 h (physchem; [8]) [µg/mL] | solubility at 24 h (physchem; [9]) [µg/mL]
CCNC(=O)Nc1nc2cc(-c3cnc(N4CCC(C)(C(=O)O)CC4)nc3)cc(COCCOC)c2s1 [Compound 194] | 1 to 16 (≈ 1.89 to 30.3 µM) | 1 to 16 (≈ 1.89 to 30.3 µM) | ≥ 800 | ≥ 800 | > 800 | > 800 | 1 to 16 (≈ 1.89 to 30.3 µM) | – | –
CCNC(=O)Nc1nc2cc(-c3cnnc(N4CCC(C)(C(=O)O)CC4)c3)cc(-c3ccccn3)c2s1 [Compound 195, 1-[5-[2-(ethylcarbamoylamino)-7-(2-pyridyl)-1,3-benzothiazol-5-yl]pyridazin-3-yl]-4-methyl-piperidine-4-carboxylic acid] | 1 to 16 (≈ 1.93 to 30.9 µM) | ≤ 0.25 | ≥ 800 | ≥ 800 | > 800 | > 800 | 1 to 16 (≈ 1.93 to 30.9 µM) | – | –
CCNC(=O)Nc1nc2cc(-c3cnc(NC4COC(C)(C(=O)O)OC4)nc3)cc(-c3ccccn3)c2s1 (stereo not shown) [Compound 196] | 1 to 16 (≈ 1.87 to 29.9 µM) | 1 to 16 (≈ 1.87 to 29.9 µM) | – | 50 (≈ 93.4 µM) | 12.5 to 400 (≈ 23.3 to 747 µM) | – | 1 to 16 (≈ 1.87 to 29.9 µM) | 100 (≈ 187 µM) | 12.5 to 400 (≈ 23.3 to 747 µM)
CCNC(=O)Nc1nc2cc(-c3cnc(N4CCC(CC)(C(=O)O)CC4)nc3)cc(C3=NOCC3)c2s1 [Compound 197, 1-[5-[7-(4,5-dihydroisoxazol-3-yl)-2-(ethylcarbamoylamino)-1,3-benzothiazol-5-yl]pyrimidin-2-yl]-4-ethyl-piperidine-4-carboxylic acid] | 1 to 16 (≈ 1.91 to 30.6 µM) | 0.25 to 1 (≈ 0.477 to 1.91 µM) | ≥ 800 | ≥ 800 | > 800 | > 800 | 1 to 16 (≈ 1.91 to 30.6 µM) | – | –
CCNC(=O)Nc1nc2cc(-c3cnc(N4CCC(C)(C(=O)O)CC4)nc3)c(OC)cc2s1 [Compound 198, 1-[5-[2-(Ethylcarbamoylamino)-6-methoxy-1,3-benzothiazol-5-yl]pyrimidin-2-yl]-4-methyl-piperidine-4-carboxylic acid] | 1 to 16 (≈ 2.13 to 34 µM) | 1 to 16 (≈ 2.13 to 34 µM) | ≥ 800 | ≥ 800 | > 800 | > 800 | 1 to 16 (≈ 2.13 to 34 µM) | – | –
CCNC(=O)Nc1nc2cc(-c3cnc(N4CCC(CC)(C(=O)O)CC4)nc3)cc(C=O)c2s1 [Compound 199, 4-ethyl-1-[5-[2-(ethylcarbamoylamino)-7-formyl-1,3-benzothiazol-5-yl]pyrimidin-2-yl]piperidine-4-carboxylic acid] | 1 to 16 (≈ 2.07 to 33.2 µM) | 0.25 to 1 (≈ 0.518 to 2.07 µM) | ≥ 800 | ≥ 800 | > 800 | > 800 | 1 to 16 (≈ 2.07 to 33.2 µM) | – | –
CCNC(=O)Nc1nc2cc(-c3cnc(N4CCC(C)(C(=O)O)CC4)nc3)cc(OC)c2s1 [Compound 200, 1-[5-[2-(Ethylcarbamoylamino)-7-methoxy-1,3-benzothiazol-5-yl]pyrimidin-2-yl]-4-methyl-piperidine-4-carboxylic acid] | 1 to 16 (≈ 2.13 to 34 µM) | 1 to 16 (≈ 2.13 to 34 µM) | ≥ 800 | ≥ 800 | > 800 | > 800 | 1 to 16 (≈ 2.13 to 34 µM) | – | –
CCNC(=O)Nc1nc2cc(-c3cnc(N4CCC(C)(C(=O)O)C4)nc3)cc(-c3ccccn3)c2s1 (stereo not shown) [Compound 201] | 1 to 16 (≈ 1.99 to 31.8 µM) | 0.25 to 1 (≈ 0.496 to 1.99 µM) | ≥ 800 | ≥ 800 | > 800 | > 800 | 1 to 16 (≈ 1.99 to 31.8 µM) | – | –
CCNC(=O)Nc1nc2cc(-c3cnc(N4CCC(C)(C(=O)O)CC4)nc3)cc(COC)c2s1 [Compound 202, 1-[5-[2-(Ethylcarbamoylamino)-7-(methoxymethyl)-1,3-benzothiazol-5-yl]pyrimidin-2-yl]-4-methyl-piperidine-4-carboxylic acid] | 1 to 16 (≈ 2.06 to 33 µM) | 1 to 16 (≈ 2.06 to 33 µM) | ≥ 800 | ≥ 800 | > 800 | > 800 | 0.25 to 1 (≈ 0.516 to 2.06 µM) | – | –
CCNC(=O)Nc1nc2cc(-c3cnc(N4CCC(CC)(C(=O)O)CC4)nc3)cc(COC)c2s1 [Compound 203, 4-Ethyl-1-[5-[2-(ethylcarbamoylamino)-7-(methoxymethyl)-1,3-benzothiazol-5-yl]pyrimidin-2-yl]piperidine-4-carboxylic acid] | 1 to 16 (≈ 2.01 to 32.1 µM) | 1 to 16 (≈ 2.01 to 32.1 µM) | – | 100 (≈ 201 µM) | 12.5 to 400 (≈ 25.1 to 802 µM) | – | 1 to 16 (≈ 2.01 to 32.1 µM) | ≥ 800 | > 800
CCNC(=O)Nc1nc2cc(-c3cnc(N4CCC(C)(C(=O)O)CC4)nc3)cc(/C=N/OCC)c2s1 [Compound 204] | 0.25 to 1 (≈ 0.489 to 1.95 µM) | 0.25 to 1 (≈ 0.489 to 1.95 µM) | ≥ 800 | ≥ 800 | > 800 | > 800 | 1 to 16 (≈ 1.95 to 31.3 µM) | – | –
CCNC(=O)Nc1nc2cc(-c3cnc(N4CCC(C)(C(=O)O)CC4)nc3)cc(-c3ccc(CN4CCOCC4)cn3)c2s1 [Compound 205] | 0.25 to 1 (≈ 0.405 to 1.62 µM) | 0.25 to 1 (≈ 0.405 to 1.62 µM) | – | 400 (≈ 649 µM) | 400 to 800 (≈ 649 to 1300 µM) | – | 1 to 16 (≈ 1.62 to 25.9 µM) | ≥ 800 | > 800
CCNC(=O)Nc1nc2cc(-c3cnc(N4CCC(CC)(C(=O)O)C4)nc3)cc(-c3ccccn3)c2s1 (stereo not shown) [Compound 206] | 0.25 to 1 (≈ 0.483 to 1.93 µM) | ≤ 0.25 | ≥ 800 | ≥ 800 | > 800 | > 800 | 1 to 16 (≈ 1.93 to 30.9 µM) | – | –
CCNC(=O)Nc1nc2cc(-c3cnc(N4CCC(CC)(C(=O)O)CC4)nc3)cc(C(=O)CC)c2s1 [Compound 207, 4-Ethyl-1-(5-(2-(3-ethylureido)-7-propionylbenzo[d]thiazol-5-yl)pyrimidin-2-yl)piperidine-4-carboxylic acid] | 0.25 to 1 (≈ 0.49 to 1.96 µM) | 0.25 to 1 (≈ 0.49 to 1.96 µM) | – | 100 (≈ 196 µM) | 12.5 to 400 (≈ 24.5 to 783 µM) | – | 1 to 16 (≈ 1.96 to 31.3 µM) | 400 (≈ 783 µM) | 400 to 800 (≈ 783 to 1570 µM)
CCNC(=O)Nc1nc2cc(-c3cnc(N4CCC(C)(C(=O)O)CC4)nc3)c(OC)c(Br)c2s1 [Compound 208, 1-[5-[7-bromo-2-(ethylcarbamoylamino)-6-methoxy-1,3-benzothiazol-5-yl]pyrimidin-2-yl]-4-methyl-piperidine-4-carboxylic acid] | 0.25 to 1 (≈ 0.455 to 1.82 µM) | 1 to 16 (≈ 1.82 to 29.1 µM) | – | 100 (≈ 182 µM) | 12.5 to 400 (≈ 22.7 to 728 µM) | – | 1 to 16 (≈ 1.82 to 29.1 µM) | 200 (≈ 364 µM) | 12.5 to 400 (≈ 22.7 to 728 µM)
CCNC(=O)Nc1nc2cc(-c3csc(N4CCC(CC)(C(=O)O)CC4)n3)cc(-c3ccccn3)c2s1 [Compound 209, 4-Ethyl-1-[4-[2-(ethylcarbamoylamino)-7-(2-pyridyl)-1,3-benzothiazol-5-yl]thiazol-2-yl]piperidine-4-carboxylic acid] | 0.25 to 1 (≈ 0.466 to 1.86 µM) | 0.25 to 1 (≈ 0.466 to 1.86 µM) | – | 200 (≈ 373 µM) | 12.5 to 400 (≈ 23.3 to 745 µM) | – | 1 to 16 (≈ 1.86 to 29.8 µM) | 400 (≈ 745 µM) | 400 to 800 (≈ 745 to 1490 µM)
